Measured values: doi:10.1101/2021.11.14.468520v1, “Exploring the kinetic selectivity of antipsychotics for dopamine D2 and 5-HT2A receptors: implications for the prevalence of EPS and receptor occupancy” (biorxiv, 2021)

How the values were obtained:
[1] = target: T1, human 5-HT2A receptor (5-HT2AR) (Homo sapiens, UniProt P28223); assay: TR-FRET saturation binding; details: labelled compound; CHO membranes; […] GppNHp, pH […]; equilibrium, […] min
T1 construct: gene HTR2A; SNAP-tagged (SNAP-Lumi4-Tb labelled) receptor transiently expressed in CHO-K1 cells; membranes; plasmid from CisBio
T1 sequence (P28223 whole entry): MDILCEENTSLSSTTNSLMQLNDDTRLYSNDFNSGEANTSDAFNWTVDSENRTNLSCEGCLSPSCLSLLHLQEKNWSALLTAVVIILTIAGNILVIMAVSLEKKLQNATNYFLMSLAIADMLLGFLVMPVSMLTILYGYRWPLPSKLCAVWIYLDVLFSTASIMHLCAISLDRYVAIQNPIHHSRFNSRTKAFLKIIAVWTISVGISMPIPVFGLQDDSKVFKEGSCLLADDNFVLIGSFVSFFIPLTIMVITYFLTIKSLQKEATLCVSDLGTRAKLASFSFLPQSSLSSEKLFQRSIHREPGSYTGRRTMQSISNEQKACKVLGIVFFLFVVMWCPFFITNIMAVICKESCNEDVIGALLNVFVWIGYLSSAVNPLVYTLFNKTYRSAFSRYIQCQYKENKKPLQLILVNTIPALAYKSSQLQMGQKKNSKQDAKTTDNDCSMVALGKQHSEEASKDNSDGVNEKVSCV

[2] = target: T1, human 5-HT2A receptor (5-HT2AR); assay: TR-FRET equilibrium competition binding
From the text: TR-FRET equilibrium competition binding on human 5-HT2A receptor (5-HT2AR)

[3] = target: T1, human 5-HT2A receptor (5-HT2AR); assay: biochemical; design: species or system CHO; details: read-out: koff (min^-1)

Molecule | Kd [1] [nM] | Ki [2] [nM] | koff [3] [min⁻¹]
4F4PP oxalate-red | 3.98 ± 0.65 |  | 
CN1CC2c3ccccc3Oc3ccc(Cl)cc3C2C1 (centres unmarked) [Asenapine] |  | 0.661 | 0.7
Cc1nc2n(c(=O)c1CCN1CCC(c3noc4cc(F)ccc34)CC1)CCCC2O (centres unmarked) [Paliperidone] |  | 1.02 | 0.23
